{
  "source": "patent US5019647A",
  "about": "“Gastrin releasing peptide antagonist” (Merck & Co., Inc., priority 1988, dated 1991)",
  "key": {"[1]": {"biological_target": "T1, GRP receptor (Mus musculus, UniProt P21729)", "T1 construct": "Swiss 3T3 fibroblasts were used in these tests as the source of GRP receptor; endogenous in cells; host or cells: Swiss 3T3 cells (intact confluent monolayers), obtained from Dr. K. Brown", "T1 sequence (P21729 whole entry)": "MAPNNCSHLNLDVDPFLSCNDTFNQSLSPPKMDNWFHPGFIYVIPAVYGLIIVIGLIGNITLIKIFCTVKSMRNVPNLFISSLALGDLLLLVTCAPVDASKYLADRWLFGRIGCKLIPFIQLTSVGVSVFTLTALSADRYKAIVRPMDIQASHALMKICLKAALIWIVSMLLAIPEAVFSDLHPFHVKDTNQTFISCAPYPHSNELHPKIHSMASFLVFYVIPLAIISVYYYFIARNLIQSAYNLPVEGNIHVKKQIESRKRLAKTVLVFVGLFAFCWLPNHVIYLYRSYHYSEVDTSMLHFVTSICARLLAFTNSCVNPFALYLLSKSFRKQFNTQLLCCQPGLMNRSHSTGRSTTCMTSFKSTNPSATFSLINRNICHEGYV", "experiment": "Procedure A: Binding Inhibition Studies (competitive binding with [3H-Phe15] GRP15-27)", "conditions": "Swiss 3T3 cells; [3H-Phe15] GRP15-27 at 3 nM; 60 minutes at 15° C.; read-out: blocks binding of the radioligand, IC50", "experimental": "(§1) The activity of the peptide derivatives of the present invention as GRP antagonists was determined in competitive binding assays with a radio-active GRP derivative. Swiss 3T3 fibroblasts were used in these tests as the source of GRP receptor. Because these cells respond to GRP binding with a rapid increase in DNA synthesis, compounds that bind to the GRP receptor can also be tested for their ability to stimulate DNA synthesis. New DNA synthesis is one of the early steps in cell division and is widely accepted as a measure of mitogenicity or cell growth. […] Compounds which block DNA synthesis are mitogenic antagonists.\nSwiss 3T3 cells, obtained from Dr. K. Brown (Institute of Animal Physiology, Cambridge, U.K.), were grown to confluency in Costar 12 well plates containing DMEM (Gibco) supplemented with 10% fetal bovine serum, 2 mM glutamine and 1% penicillin-streptomycin. The cells were washed twice with binding buffer [1:1 DMEM: Waymouths MB752/1 medium, plus 1 mg/ml BSA (Fraction V, Calbiochem)]. The antagonist was dissolved in 10 mM HCl, and diluted to the appropriate concentration in binding buffer. The antagonist was then added to the cells, followed by [3H-Phe^15 ] GRP15-27 at a final concentration of 3 nM. […]"}, "[2]": {"test_system": "Swiss 3T3 cells", "experiment": "Procedure C: Mitogenesis Inhibition (GRP-stimulated 3H-thymidine incorporation)", "type": "cell-based", "conditions": "3 nM human GRP, read-out: blocks mitogenic stimulation of human GRP, IC50", "experimental": "as §1\nSwiss 3T3 cells were grown in monolayer culture in 24 -well plates (Costar) in serum-free DMEM for 48 hours, at which time the GRP or a GRP homologue, the antagonist and 23 nM ^3 H-thymidine were added. After an additional 48 hours, the cell monolayer was washed twice with PBS, and the cells were then removed with 1 ml 10×trypsin containing 5 mM EDTA. The cells were harvested with a Skatron filter apparatus, and the filters counted in a scintillation counter."}, "[3]": {"biological_target": "T2, GRP receptor on SCLC (Homo sapiens, UniProt P30550)", "T2 construct": "approximately 1×10^8 H345 SCLC cells; endogenous in cells; host or cells: H345 SCLC cells", "T2 sequence (P30550 whole entry)": "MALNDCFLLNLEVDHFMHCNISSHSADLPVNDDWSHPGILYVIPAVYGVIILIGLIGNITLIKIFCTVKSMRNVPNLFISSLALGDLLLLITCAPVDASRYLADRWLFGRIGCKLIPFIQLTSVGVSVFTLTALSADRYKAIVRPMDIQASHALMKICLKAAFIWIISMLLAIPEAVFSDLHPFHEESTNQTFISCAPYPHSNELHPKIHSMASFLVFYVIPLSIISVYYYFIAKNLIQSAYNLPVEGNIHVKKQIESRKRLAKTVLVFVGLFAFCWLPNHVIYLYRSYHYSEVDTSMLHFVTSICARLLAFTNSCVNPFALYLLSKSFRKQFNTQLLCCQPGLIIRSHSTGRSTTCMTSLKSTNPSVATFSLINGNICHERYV", "experiment": "Procedure D: Stimulation of Ca2+ Release in SCLC (Fura-2 fluorescence, GRP 14-27 challenge)", "type": "cell-based", "conditions": "H345 SCLC cells; 100 nM GRP14-27; read-out: blocks the Ca2+ response elicited by GRP14-27, IC50", "description": "Following the procedure of Heikkila et al., J Biol. Chem. 262 16456 (1987), approximately 1×10^8 H345 SCLC cells, maintained in RPMI-1640 (Ro) medium supplemented with selenium, insulin, and transferrin, were harvested by settling and washed with Ro. They were then resuspended in 2 ml Ro, to which 1.2 nmol Fura-2/AM per 10^6 cells was added. After a 15 minute incubation at 37° C., the cells were diluted to 10 ml with Ro and incubated for 1 hour at 37° C., the cells were then centrifuged and resuspended in HEPES-saline (140 mM NaCl, 5mM KCl, 5mM glucose, 1 mM CaCl2, 1 mM MgCl2, 20 mM HEPES, pH 7.4) at a density of 2.5-5×10^6 cells/ml. The cells were kept on ice for up to 2 hours before being used. Ca^2+ measurements were performed at 37° C. in an Aminco SPF-500 fluorimeter. The excitation wavelength was 340 nm, the emission wavelength 510 nm. Two ml of cell suspension was periodically resuspended in a 3 ml plastic cuvette. They were equilibrated at 37° for at least 5 minutes data was collected. After a stable baseline was established, the compound of interest was added, and data was collected for approximately 5 minutes. […] The cells were then lysed with 4 μl 10% Triton X-100 to measure peak fluorescence. Baseline fluorescence was measured after the subsequent addition of 40 μl 2M tris (pH 9.5) and 64 μl 0.2M EGTA."}},
  "note": "Residues, ends and D or L forms follow the SMILES beside them. *: point of attachment. X1 = CCOC[C@H](CC(C)C)N*",
  "data": [
    {"smiles": "CCOC[C@H](CC(C)C)NC(=O)[C@H](Cc1c[nH]cn1)NC(=O)CNC(=O)[C@@H](NC(=O)[C@H](C)NC(=O)[C@H](Cc1c[nH]c2ccccc12)NC(=O)[C@H](Cc1c[nH]cn1)NC(C)=O)C(C)C", "note": "[Example 1, Ac-His-Trp-Ala-Val-Gly-His-NHCHCH2 OCH5] (Ac-HWAVGH-X1)", "values": [
      {"measurement": "IC50", "setting": "[1]", "value": "~5", "unit": "nM"},
      {"measurement": "IC50", "setting": "[2]", "value": "~20", "unit": "nM"},
      {"measurement": "IC50", "setting": "[3]", "value": "~300", "unit": "nM"}
    ]}
  ]
}
